These are literature values, as cited in US7220858B2, “Synthesis of hydrazine and chlorinated derivatives of bicyclic pyridazines” (Barbeau Pharma, Inc., priority 2003, dated 2007).

For series [1] the following is noted: in the presence of oxygen and metal ions such as Cu+2, Fe+2, and Fe+3.

Where two headings read alike, the source gives them in different places.

Turning to `NNc1nncc2ccccc12` [Hydralazine, 1-hydrazinophthalazine], in the series on vascular smooth muscle (given intravenously), the onset of action was 10 to 20 min. In addition, in the series with vascular smooth muscle (in the body), the metabolism and excretion entry is listed as “extensively metabolized in the body to products that are excreted predominantly in the urine”. Further, in the series with vascular smooth muscle (in vivo), the duration of action is 3 to 4 h, the onset of action is 10 to 30 min and the “time to maximum hypotensive effect” value is 10 to 80 min. Besides, the oxidation result in series [1] is on record as “oxidizes rapidly”.
